US11912755B2, “Endostatin fragments and variants for use in treating fibrosis” (iBio, Inc., priority 2015, dated 2024)
“Also recorded” adds a separate entry of the source. Ends that are not written are not given here.

Experiments:
[1] = tested on: bleomycin induced dermal fibrosis; conditions: s.c.; single dose prophylactically, or multiple dose regimen starting 3 days after bleomycin; cited from earlier work
[2] = tested on: TGF-β-induced dermal fibrosis in mouse skin; experiment: In vivo TGF-β-induced dermal fibrosis in mouse skin
Method: In Vivo Mouse Experiments. CB57BL6/J male mice were purchased from The Jackson Laboratory (Bar Harbor, ME). Human rE (10 μg/ml) or Endostatin peptides (10 μg/ml) in combination with TGF-β (10 ng/ml), or TGF-β alone were injected intradermally on the back of mice in a total volume of 100 μl 1×PBS. Mice were injected in two different skin sites and sacrificed one week post-injection. Skin surrounding the injection site was harvested and fixed in 10% formalin prior to embedding in paraffin.
Measurement of Skin Dermal Thickness. Six μm sections of paraffin-embedded human and mouse skin tissues were stained with hematoxylin and eosin (H&E). In some experiments, sections were stained with Masson trichrome which identifies collagens. Images were taken on a Nikon Eclipse 800 microscope. The thickness of the dermis was measured in 6 random fields of each section using the image/J® software. Data are shown in arbitrary units.
E4, a peptide representing the carboxy terminus of human endostatin, can attenuate fibrosis triggered by multiple fibrogenic factors. The anti-fibrotic effects of E4 can be detected whether administered concomitantly with or following the fibrogenic trigger. The efficacy of E4 was confirmed in […] pre-clinical models of fibrosis: a) bleomycin-induced dermal fibrosis in vivo in mouse skin, b) TGF-β induced dermal fibrosis in mouse skin, and c) bleomycin-induced pulmonary fibrosis. E4 peptide or a control peptide (E1; representing the amino terminal region of endostatin) were administered at the same time as TGF-β or bleomycin or 3-4 days following TGF-β or bleomycin. Mice were sacrificed one and two weeks after TGF-β-initiation of dermal fibrosis, and two and three weeks after bleomycin-induced pulmonary fibrosis. Two different modes of administration of the E4 peptide were also tested. It was confirmed that intraperitoneal and intratracheal administration was effective. The amount of E4 that was administered was 10 μg/ml in a total volume of 100 μl for skin and IP injections and 50 μl for IT administration.
For these studies, fibrosis was assessed by measurement of dermal thickness on H&E skin sections (skin), assessment of collagen levels by Masson Trichrome staining (skin and lung), and measurement of collagen levels by Sircol assay (lung). Furthermore, to confirm the mechanism by which E4 exerts its anti-fibrotic effects, the production of extra-cellular matrix (ECM) components, the levels of enzymes that promote matrix stabilization and thus accumulation and levels of those that degrade ECM components, and levels of transcription factors downstream of the pro-fibrotic triggers were evaluated. Results were assessed using the unpaired t test and the 3-way ANOVA (for the ID1 data).

MMP-2 = experiment: Gelatin zymography of MMP-2 in primary human lung fibroblasts; format: cell-based; conditions: for MMP-2 activity: E-4 following TGF-β
Text: FIG. 14A-14B. FIG. 14A: E4 reduces fibrosis in vitro by inducing MMP-2 activity in primary human lung fibroblasts, thus resulting in increased degradation of collagen and other matrix proteins. […] Lane 1: Vehicle (DMSO); Lane 2: E-4; Lane 3: TGF-β; Lane 4: TGF-β followed by E4. FIG. 14B: Digital image showing that both total and active MMP-2 levels are increased in cells treated with TGF-β and E-4.

PAI-1 = experiment: Genes regulated by E4: PAI-1; format: cell-based, human; conditions: HuF-T and mouse bleomycin model of pulmonary fibrosis; RT-qPCR, protein expression
Method: (§1) Several experiments have been performed to identify the mechanisms by which E4 exerts its anti-fibrotic activity. Real-time quantitative PCR (qPCR)-based arrays were performed on RNA extracted from primary human lung fibroblasts or mouse lung tissue stimulated with various fibrotic triggers in the absence and presence of E4 treatment in order to identify genes influenced by the endostatin peptide.
(§2) The arrays identified several genes that have been previously implicated in fibrosis to be influenced by E4 treatment. These genes included connective tissue growth factor (CTGF), insulin-like growth factor binding protein (IGFBP)-3, matrix metalloproteases (MMP)-1 and MMP-3, urokinase plasminogen activator (uPA), plasminogen activator inhibitor (PAI)-1, and hepatocyte growth factor (HGF) with levels either decreased or increased in the presence of E4 as shown in TABLE 5.

CTGF = experiment: Genes regulated by E4: CTGF; format: cell-based; conditions: primary human fibroblasts treated with bleomycin or TGF-β; RT-qPCR
Method: as §1, §2

IGFBP-3 = experiment: Genes regulated by E4: IGFBP-3; format: cell-based, human; conditions: HuF-T; RT-qPCR, protein expression levels
Method: as §1, §2

[3] = tested on: bleomycin induced lung fibrosis; conditions: i.t.; concomitantly or 3 days after bleomycin; cited from earlier work
Egr-1 = experiment: Western blot of Egr-1 in primary human lung fibroblasts; format: cell-based; conditions: harvested after 24 hours
Method: FIG. 16. […] Reduction of Egr-1 levels parallels that of collagen, SMA, and fibronectin. Lane 1: vehicle (DMSO); Lane 2: E4; Lane 3: TGFβ, Lane 4 TGFβ followed by E4 after 60 minutes. The samples were harvested after 24 hours.
In addition, E4 increases levels of inhibitor of differentiation (ID)-1, a transcription factor that inhibits TGF-β effects (see FIG. 15). It was determined in a Western blot analysis that E4 reduces the levels of the master switch transcription factor, Egr-1 (see FIG. 16) in primary human lung fibroblasts, treated and harvested after 24 hours. The reduction of Egr-1 levels parallels a reduction in collagen, SMA and fibronectin. Egr-1 is known to mediate the effects of several fibrotic agents (including TGF-β and bleomycin).

**Q.** Which skin thickness [1] does the source give for “E4: SEQ ID NO: 21, amino acids 133-180 of human endostatin with a C-terminal amide (SYCETWRTEAPSATGQASSLLGGRLLGQSAASCHHAYIVLCIENSFMT-NH2; cysteine pairing not given here)” here?
**A.** E4 significantly decreased skin

**Q.** And the “TGF-β-induced dermal fibrosis (dermal thickness)” value ([2]; 10 μg/ml intradermal with TGF-β 10 ng/ml, one week)?
**A.** prevented

**Q.** What about the “TGF-β induced dermal fibrosis, delayed treatment” value ([2]; TGF-β day 1, peptide IP at day 3, harvested day 7) of the same substance?
**A.** significant decrease

**Q.** What about the MMP-2 activity (MMP-2) of the same substance?
**A.** induction and activation

**Q.** And the MMP-2 activity (MMP-2; listed as E-4)?
**A.** increased MMP-2 activity

**Q.** What about the “total and active MMP-2 levels” value (MMP-2; cells treated with TGF-β and E-4) of the same substance?
**A.** increased

**Q.** And the “Effect of E4 peptide on PAI-1” value (PAI-1)?
**A.** reduces; also recorded: Decrease

**Q.** What about the “Effect of E4 peptide on CTGF” value (CTGF) of the same substance?
**A.** reduces; also recorded: Decrease

**Q.** And the “Effect of E4 peptide on IGFBP-3” value (IGFBP-3)?
**A.** reduces; also recorded: Decrease

**Q.** And the “pulmonary fibrosis (microscopy, hydroxyproline/collagen)” value [3]?
**A.** E4 significantly decreased

**Q.** And the Egr-1 levels (Egr-1)?
**A.** reduces

**Q.** And the Egr-1 levels (Egr-1; listed as E-4)?
**A.** reducing levels
